Reference: the supplement of paper PMC11451515

Test system: P12-Ichikawa
Assay: cell viability relative to DMSO control; higher = less cytotoxic
Conditions: 48 h
Outline: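 NOMO1 or SEM cells were plated at 500 cells/well and P12-Ichikawa cells at 1000 cells/well in 1536-well plates (5 μl), after each leukemia line had been adapted for at least four passages in each medium. Pin dosing delivered library compounds in DMSO at 11 threefold concentrations, 47 μM to 0.79 nM. CellTiter-Glo One luminescence was read after 48 h at 37°C. Viability is reported as a per-plate percentage of DMSO wells, with cell-free wells as background.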

[1] = HPLM + 10% dialyzed FBS, 0.000781 µM
[2] = HPLM + 10% dialyzed FBS, 0.00234 µM
[3] = HPLM + 10% dialyzed FBS, 0.00702 µM
[4] = HPLM + 10% dialyzed FBS, 0.0211 µM
[5] = HPLM + 10% dialyzed FBS, 0.0632 µM
[6] = HPLM + 10% dialyzed FBS, 0.19 µM
[7] = HPLM + 10% dialyzed FBS, 0.569 µM
[8] = HPLM + 10% dialyzed FBS, 1.71 µM
[9] = HPLM + 10% dialyzed FBS, 5.12 µM
[10] = HPLM + 10% dialyzed FBS, 15.4 µM
[11] = HPLM + 10% dialyzed FBS, 46.1 µM
[12] = RPMI 5 mM glucose + 10% FBS, 0.000781 µM
[13] = RPMI 5 mM glucose + 10% FBS, 0.00234 µM
[14] = RPMI 5 mM glucose + 10% FBS, 0.00702 µM
[15] = RPMI 5 mM glucose + 10% FBS, 0.0211 µM
[16] = RPMI 5 mM glucose + 10% FBS, 0.0632 µM
[17] = RPMI 5 mM glucose + 10% FBS, 0.19 µM
[18] = RPMI 5 mM glucose + 10% FBS, 0.569 µM
[19] = RPMI 5 mM glucose + 10% FBS, 1.71 µM
[20] = RPMI 5 mM glucose + 10% FBS, 5.12 µM
[21] = RPMI 5 mM glucose + 10% FBS, 15.4 µM
[22] = RPMI 5 mM glucose + 10% FBS, 46.1 µM
[23] = RPMI 5 mM glucose + 10% dialyzed FBS, 0.000781 µM
[24] = RPMI 5 mM glucose + 10% dialyzed FBS, 0.00234 µM
[25] = RPMI 5 mM glucose + 10% dialyzed FBS, 0.00702 µM
[26] = RPMI 5 mM glucose + 10% dialyzed FBS, 0.0211 µM
[27] = RPMI 5 mM glucose + 10% dialyzed FBS, 0.0632 µM
[28] = RPMI 5 mM glucose + 10% dialyzed FBS, 0.19 µM
[29] = RPMI 5 mM glucose + 10% dialyzed FBS, 0.569 µM
[30] = RPMI 5 mM glucose + 10% dialyzed FBS, 1.71 µM
[31] = RPMI 5 mM glucose + 10% dialyzed FBS, 5.12 µM
[32] = RPMI 5 mM glucose + 10% dialyzed FBS, 15.4 µM
[33] = RPMI 5 mM glucose + 10% dialyzed FBS, 46.1 µM

Row | SMILES | cell viability [1] | cell viability [2] | cell viability [3] | cell viability [4] | cell viability [5] | cell viability [6] | cell viability [7] | cell viability [8] | cell viability [9] | cell viability [10] | cell viability [11] | cell viability [12] | cell viability [13] | cell viability [14] | cell viability [15] | cell viability [16] | cell viability [17] | cell viability [18] | cell viability [19] | cell viability [20] | cell viability [21] | cell viability [22] | cell viability [23] | cell viability [24] | cell viability [25] | cell viability [26] | cell viability [27] | cell viability [28] | cell viability [29] | cell viability [30] | cell viability [31] | cell viability [32] | cell viability [33]
1 | COc1ccc(C(=O)c2c(C)n(CCN3CCOCC3)c3ccccc23)cc1 | 94.2% | 104% | 101% | 95.2% | 106% | 111% | 103% | 109% | 98.3% | 111% | 111% | 89.3% | 91.1% | 95% | 100% | 97.5% | 96.7% | 101% | 113% | 84.4% | 110% | 98.9% | 96.5% | 93.2% | 99.4% | 98.2% | 99.3% | 102% | 98.4% | 93.8% | 104% | 112% | 109%
2 | C[C@@H](NCCCc1cccc(C(F)(F)F)c1)c1cccc2ccccc12 | 120% | 123% | 117% | 125% | 109% | 118% | 114% | 118% | 113% | 100% | 115% | – | – | – | – | – | – | – | – | – | – | – | – | – | – | – | – | – | – | – | – | – | –
3 | CC(C)(S)[C@@H](N)C(=O)O | 108% | 112% | 115% | 120% | 106% | 120% | 113% | 122% | 117% | 115% | 108% | 100% | 109% | 114% | 121% | 96.1% | 112% | 118% | 121% | 115% | 125% | 99.5% | 104% | 110% | 103% | 115% | 98% | 109% | 107% | 112% | 114% | 111% | 95.8%
4 | NC(=O)[C@H]1CCS[C@@H]2C[C@]3(CCCN3C(=O)Cc3ccc(NC(=O)COc4ccc(Cl)cc4Cl)cc3)C(=O)N12 | 113% | 115% | 120% | 110% | 114% | 101% | 73.1% | 16.5% | 18.6% | 18.5% | 12.8% | 110% | 109% | 120% | 111% | 128% | 110% | 106% | 40.3% | 16.5% | 22.9% | 17.5% | 124% | 120% | 130% | 134% | 127% | 125% | 116% | 70.3% | 28.7% | 39.2% | 23.8%
5 | COc1cc(Nc2c(C#N)cnc3cc(OCCCN4CCN(C)CC4)c(OC)cc23)c(Cl)cc1Cl | 112% | 112% | 110% | 110% | 117% | 120% | 120% | 97.6% | 42.4% | 4.36% | 4.46% | 103% | 123% | 112% | 115% | 121% | 122% | 122% | 109% | 54.2% | 6.74% | 5.61% | 111% | 110% | 126% | 128% | 124% | 127% | 129% | 105% | 64.5% | 7.05% | 5.93%
6 | C[C@]12Cc3cn[nH]c3C[C@@H]1CC[C@@H]1[C@@H]2CC[C@@]2(C)[C@H]1CC[C@]2(C)O | 105% | 116% | 113% | 113% | 125% | 110% | 98.1% | 107% | 101% | 120% | 103% | 108% | 64.2% | 123% | 112% | 120% | 109% | 102% | 106% | 113% | 110% | 93.7% | 97.4% | 112% | 111% | 97.2% | 106% | 111% | 105% | 99.6% | 96.9% | 97.5% | 93.1%
7 | COc1cc([C@@H](CC(=O)O)c2ccc(C)c(CN3C[C@@H](C)Oc4ccccc4[S+]3(=O)[O-])c2)cc2nnn(C)c12 | 108% | 115% | 114% | 110% | 109% | 110% | 115% | 109% | 96.6% | 12.6% | 10.5% | 115% | 114% | 118% | 106% | 126% | 113% | 121% | 111% | 101% | 84% | 67.4% | 114% | 122% | 115% | 125% | 114% | 112% | 116% | 116% | 104% | 94.7% | 70.7%
8 | NC(=O)Nc1sc(-c2ccc(F)cc2)cc1C(N)=O | 113% | 115% | 116% | 108% | 114% | 111% | 104% | 105% | 83.4% | 67.3% | 24.3% | 113% | 114% | 111% | 110% | 105% | 119% | 106% | 106% | 83.9% | 64.6% | 22.1% | 118% | 119% | 117% | 110% | 115% | 112% | 110% | 97.3% | 82.4% | 70.2% | 27.3%
